Results on 13 molecules are retold here after PubChem BioAssay (NCI).

Holding throughout (test): NCI-60 cell line screen, 48 h
Test [1] concerns CCRF-CEM leukemia.
The test system of test [2] is BT-549 breast.
For test [3], the system named is SW-620 colon.
In test [4] the test system is K-562 leukemia.
Test [5] deals with HCC-2998 colon.
Test [6] deals with RPMI-8226 leukemia.
Test [7] concerns UO-31 renal.
Test [8] has as its system LOX IMVI melanoma.
In test [9] the test system is U251 CNS.
In test [10] the test system is SNB-75 CNS.

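Test compounds were applied to cells in 96-well plates for 48 hours at 5 doses. GI50 is the concentration that inhibits growth by half. TGI denotes the concentration required for complete inhibition of growth.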

For the molecule `O=c1cc(N2CCN(c3cc(=O)n4ccccc4n3)CC2)oc2ccccc12`, the TGI in test [1] is greater than 100 µM; in [2] it was greater than 100 µM; in [3] it was greater than 100 µM; in test [4], greater than 100 µM; in test [5], greater than 100 µM; in test [6], 90.5 µM. Moreover, the TGI in test [7] was greater than 70.9 µM; in test [8], greater than 100 µM; in test [9], greater than 100 µM; in [10] it was greater than 54.3 µM.
For `COc1ccc(C(SC2C(O)C(CO)OC2n2ccc(N)nc2=O)(c2ccccc2)c2ccc(OC)cc2)cc1` (stereo not given), the TGI in test [1] was greater than 100 µM; in test [2], 43 µM; in test [3], greater than 100 µM; in test [4], 88.3 µM; in test [5], 32.6 µM; in test [6], 59.3 µM. Besides, the TGI in [7] turned out to be 42.8 µM; in test [8], 33.1 µM; in test [9], 33 µM; in test [10], 46.6 µM.
In the case of `CCOC(=O)c1c(N2CCCC2)ncn(Cc2ccccc2)c1=S`, the TGI in test [1], in test [2], in test [3], in [4], in test [5] and in test [6] was greater than 100 µM in each case. Moreover, the TGI in test [7], in test [8], in test [9] and in test [10] was greater than 100 µM each time.
Consider `COc1ccc(NC(C)=O)cc1N1C(=O)/C(=C\c2cc(OC)c(OC)c(OC)c2)SC1c1ccccc1` (stereo not given), for which the TGI in test [1], in test [2], in [3], in test [4], in [5] and in test [6] was greater than 100 µM in each case. Further, the TGI in test [7], in test [8], in test [9] and in [10] was greater than 100 µM in each case.
On to `O=c1oc2ccccc2cc1-c1cn2cc(Cl)ccc2n1`, for which the TGI in [1] is greater than 100 µM; in test [2] it was 21.9 µM; in test [3], 31.7 µM; in test [4] it was greater than 100 µM; in test [5], 21.7 µM; in [6], 59.7 µM. For the same molecule, the TGI is 6.79 µM in [7], 18.7 µM in test [8], 13.9 µM in test [9] and greater than 21.2 µM in test [10].
Consider `Cc1cc(N2CCCC2)nc(N(CCNc2ccnc3cc(Cl)ccc23)Cc2ccco2)n1`, for which the GI50 is 2850 nM in test [1]; 5.74 µM in test [2]; 2600 nM in test [3]; 2260 nM in test [4]; 4.58 µM in [5]; 2020 nM in test [6]. In addition, the GI50 is 2580 nM in test [7], 2660 nM in test [8], 3.15 µM in test [9] and 10.7 µM in [10]. In addition, the TGI in test [1] is greater than 100 µM; in test [2], greater than 100 µM; in test [3] it was 81.8 µM; in test [4] it was greater than 100 µM; in test [5], 56.7 µM; in [6], 4.5 µM. Besides, the TGI came out at 39.8 µM in test [7], 10.4 µM in test [8], 21.4 µM in test [9] and 60.7 µM in test [10].
In the case of `CC(=O)Oc1c2oc3ccc(Cl)cc3c(=O)c2c(O)c2ccsc12`, the TGI in test [1], in test [2], in test [3], in test [4], in [5] and in test [6] was greater than 100 µM throughout. Besides, the TGI in test [7], in test [8], in test [9] and in test [10] was greater than 100 µM in each case.
As to `CC(C)(Oc1ccc(Cl)cc1)C(=O)N(C(=O)N1CCC(c2ccccc2)CC1)c1ccccc1`, the TGI is greater than 100 µM in test [1]; greater than 95.8 µM in test [2]; greater than 100 µM in test [3]; greater than 100 µM in test [4]; greater than 100 µM in test [5]; greater than 46.3 µM in test [6]. For the same molecule, the TGI is greater than 100 µM in test [7], greater than 100 µM in test [8], greater than 100 µM in test [9] and greater than 83.2 µM in test [10].
Turning to `CCOC(=O)c1cc2c(C(=O)c3ccc([N+](=O)[O-])cc3)c(C(C)=O)ccc2[nH]1`, the TGI in test [1], in test [2], in test [3], in [4], in test [5] and in [6] was greater than 100 µM throughout. Moreover, the TGI in test [7] was greater than 100 µM; in [8], greater than 100 µM; in test [9] it was 32.3 µM; in test [10], 32.9 µM.
`O=C(Nc1nc2ccccc2s1)c1cc([N+](=O)[O-])ccc1Cl`: the TGI in [1] was 8.77 µM; in test [2] it was greater than 30.9 µM; in [3], greater than 51.4 µM; in test [4], greater than 100 µM; in test [5] it was 53.6 µM; in test [6] it was greater than 100 µM. The TGI in test [7] is greater than 100 µM; in test [8] it was 13.7 µM; in test [9], greater than 91.6 µM; in test [10], greater than 100 µM.
Turning to `N#Cc1ccccc1-c1nc2c3c(c(N)ccc3n1)C(=O)c1ccccc1-2`, the TGI in test [1], in test [2], in test [3], in [4], in [5] and in [6] was greater than 100 µM in each case. Further, the TGI in [7], in test [8], in test [9] and in [10] was greater than 100 µM each time.
For `CCOC(=O)C(NC(=O)CC)(Nc1cc(C)on1)C(F)(F)F` (stereo not given), the TGI in test [1], in test [2], in test [3], in test [4], in [5] and in test [6] was greater than 100 µM each time. Moreover, the TGI in test [7], in test [8], in test [9] and in test [10] was greater than 100 µM each time.
For the molecule `CC1(O)CC(=O)c2c(cc3ccc(-c4c5c(c(O)c6c(O)cccc46)C(=O)CC(C)(O)C5)c(O)c3c2O)C1` (stereo not given), the TGI in test [1] amounted to 10.5 µM; in [2] it was 6.75 µM; in [3], 18.9 µM; in [4], 11.9 µM; in [5], 1.07 µM; in test [6] it was 2.8 µM. Also, the TGI came to 0.726 µM in test [7], 5.41 µM in test [8], 1.74 µM in [9] and 0.773 µM in test [10].
